Measured values: patent US12383545B1, “Treatment of migraine” (priority 2018, dated 2025)
“And” between values parts separate entries of the source, which are not always exact repeats. Equal entries are not always repeated.

Test system: participants with episodic migraine
Assay: Study A: phase 3 randomized double-blind placebo-controlled 12-week trial, eDiary efficacy (monthly migraine days, headache days, acute medication use days, responder rates)
Assay type: in vivo, human
Settings: for Change from baseline in mean monthly acute medication use days, LS mean change (SE) / Change from baseline in mean monthly headache days, LS mean change (SE) / Change from baseline in mean monthly migraine days, LS mean change (SE) / Mean monthly acute medication use days, LSMD vs. placebo (95% CI) / Mean monthly headache days, LSMD vs. placebo (95% CI) / Mean monthly migraine days, LSMD vs. placebo (95% CI): across 12-week treatment period; for Change from baseline in mean monthly acute medication use days, LS mean change (SE) / Change from baseline in mean monthly headache days, LS mean change (SE) / Change from baseline in mean monthly migraine days, LS mean change (SE) / Mean monthly acute medication use days, LSMD vs. placebo (95% CI) / Mean monthly headache days, LSMD vs. placebo (95% CI) / Mean monthly migraine days, LSMD vs. placebo (95% CI) / ≥50% reduction in 3-month average of monthly migraine days, odds ratio vs. placebo (95% CI) / ≥50% reduction in 3-month average of monthly migraine days, responder n (%): mITT; for decrease in mean monthly headache days / decrease in monthly migraine days: 12 weeks; for decrease in mean monthly headache days / decrease in monthly migraine days / decrease in mean monthly acute medication use days: given as decrease; for decrease in mean monthly acute medication use days: across 12 weeks; for proportion of participants who reported a migraine day: first full day after study drug administration; for LS mean change from baseline in mean headache days / LS mean reduction from baseline in mean cumulative headache hours: first treatment period; for LS mean change from baseline in acute medication use days / LS mean change from baseline in moderate/severe headache days: first treatment period (weeks 1-4); for Mean change from baseline in weekly migraine days: first week of treatment; for odds ratio vs placebo for reporting a migraine: post dose day 1
Description: Study A: A phase 3, multicenter, randomized, double-blind, placebo-controlled, parallel-group study was conducted to evaluate the efficacy, safety, and tolerability of oral atogepant for the prevention of migraine in participants with episodic migraine (EM).
This study comprised a 4-week screening and baseline period, a 12-week double-blind treatment period, and a 4-week follow-up period. The total study duration was 20 weeks.
Adults 18 to 80 years of age with 4 to 14 migraine days per month in the 3 months prior to visit 1, and 4 to 14 migraine days during the 28-day baseline period per electronic Diary, were allowed to enroll. Inclusion criteria included at least a 1-year history of migraine with or without aura consistent with a diagnosis, diagnosed as specified in the International Classification of Headache Disorders, 3rd edition, version (ICHD-3), and the age of the participant at the time of migraine onset was <50 years. Exclusion criteria included a history of migraine accompanied by diplopia or decreased level of consciousness or retinal migraine; a current diagnosis of chronic migraine, new persistent daily headache, trigeminal autonomic cephalgia (e.g., cluster headache), or painful cranial neuropathy as defined by ICHD-3, or if they averaged 15 or more migraine days per month across the 3 months prior to Visit 1 or during the 28-day baseline period; a history of an inadequate response to >4 medications (2 of which have different mechanisms of action) prescribed for the treatment of migraine; and participants with clinically significant hematologic, endocrine, cardiovascular, pulmonary, renal, hepatic, gastrointestinal, or neurologic disease. Use of opioids or barbiturate on more than 2 days per month, triptans or ergots on 10 or more days per month, or simple analgesics (e.g., aspirin, non-steroidal anti-inflammatory drugs, acetaminophen) on 15 or more days per month in the 3 months prior to Visit 1 or during the 28-day baseline period were also excluded. Use of barbiturates was also excluded 30 days prior to screening and throughout the duration of the trial.
Randomization was stratified based on prior exposure (yes/no) to a migraine prevention medication with proven efficacy, such as antiepileptics, tricyclic antidepressants, beta-blockers, calcium channel blocker, angiotensin receptor blocker or converting enzyme inhibitor, or serotonin-norepinephrine reuptake inhibitors. Approximately 70% of randomized participants took at least one prior migraine prevention medication with proven efficacy. Participants were not on concurrent medication during the study.
A total of 910 patients were randomized 1:1:1:1 to one of the four treatment groups (10 mg QD, 30 mg QD, 60 mg QD, or placebo). Efficacy analyses were based on the Modified Intent-to-Treat Population (mITT) of 873 patients.
All participants were instructed to take trial treatment orally at approximately the same time once daily for 12 weeks. To maintain the blinding, all participants took 3 tablets of trial treatment provided in identical blister cards: placebo (placebo 10 mg/placebo 30 mg/placebo 60 mg), atogepant 10 mg (atogepant 10 mg/placebo 30 mg/placebo 60 mg), atogepant 30 mg (placebo 10 mg, atogepant 30 mg, placebo 60 mg), and atogepant 60 mg (placebo 10 mg/placebo 30 mg/atogepant 60 mg). Participants, site personnel, and trial sponsor personnel were blinded to the treatment assignment. Tablet formulations for CGRP compounds are described, for example, in U.S. Pat. No. 10,117,936.
Participants were allowed to take acute treatments for migraine which included triptans, ergot derivatives, opioids, acetaminophen, non-steroidal anti-inflammatory drugs, and antiemetic agents. Participants were not allowed to take any preventive treatments for migraine 30 days prior to visit 1 and throughout the trial.
Efficacy assessments were recorded by the participant in an electronic diary at home or via eTablet at the trial site during clinic visits. […]

[1] = range across atogepant 10, 30, 60 mg groups

## C[C@@H]1[C@H](c2c(F)ccc(F)c2F)C[C@H](NC(=O)c2cnc3c(c2)C[C@@]2(C3)C(=O)Nc3ncccc32)C(=O)N1CC(F)(F)F [atogepant]
10 mg QD
  100% reduction in 3-month average of monthly migraine days, responder n (%): 17 (7.9) %
  ≥25% reduction in 3-month average of monthly migraine days, responder n (%): 73.4%
  ≥75 reduction in 3-month average of monthly migraine days, responder n (%): 30.4%
  Change from baseline in mean monthly acute medication use days, LS mean change (SE): -3.66 days
  Change from baseline in mean monthly headache days, LS mean change (SE): -3.94 days
  Change from baseline in mean monthly migraine days, LS mean change (SE): -3.69 days
  Mean monthly acute medication use days, LSMD vs. placebo (95% CI): -1.31 days
  Mean monthly headache days, LSMD vs. placebo (95% CI): -1.42 days
  Mean monthly migraine days, LSMD vs. placebo (95% CI): -1.21 days
  ≥50% reduction in 3-month average of monthly migraine days, odds ratio vs. placebo (95% CI): 3.06
  ≥50% reduction in 3-month average of monthly migraine days, responder n (%): 55.6%
10 mg QD, listed as Atogepant
  ≥50% reduction in 3-month average of monthly migraine days, responder n (%): (55.6) %
10 mg
  decrease in mean monthly headache days: 3.94 days
  decrease in monthly migraine days: 3.69 days
  decrease in mean monthly acute medication use days: 3.66 days
  proportion of participants who reported a migraine day: 14.1%
  LS mean change from baseline in mean headache days: −3.2
  LS mean reduction from baseline in mean cumulative headache hours: -23.3 h
  LS mean change from baseline in acute medication use days: −3.3
  LS mean change from baseline in moderate/severe headache days: −3.0
  Mean change from baseline in weekly migraine days: −0.77
  odds ratio vs placebo for reporting a migraine: 0.49
10 mg, weeks 1-4
  mean change from baseline in mean monthly migraine days: −3.1
10 mg, weeks 5-8
  mean change from baseline in mean monthly migraine days: −3.7
10 mg, weeks 9-12
  mean change from baseline in mean monthly migraine days: −4.2
30 mg QD
  100% reduction in 3-month average of monthly migraine days, responder n (%): 11 (4.0) %
  ≥25% reduction in 3-month average of monthly migraine days, responder n (%): 172 (77.1) %
  ≥75 reduction in 3-month average of monthly migraine days, responder n (%): 66 (29.6) %
  Change from baseline in mean monthly acute medication use days, LS mean change (SE): -3.68 days
  Change from baseline in mean monthly headache days, LS mean change (SE): -4.04 days
  Change from baseline in mean monthly migraine days, LS mean change (SE): -3.86 days
  Mean monthly acute medication use days, LSMD vs. placebo (95% CI): -1.33 days
  Mean monthly headache days, LSMD vs. placebo (95% CI): -1.53 days
  Mean monthly migraine days, LSMD vs. placebo (95% CI): -1.38 days
  ≥50% reduction in 3-month average of monthly migraine days, odds ratio vs. placebo (95% CI): 3.53
  ≥50% reduction in 3-month average of monthly migraine days, responder n (%): 58.7%
30 mg QD, listed as Atogepant
  ≥50% reduction in 3-month average of monthly migraine days, responder n (%): (58.7) %
30 mg
  decrease in mean monthly headache days: 4.04 days
  decrease in monthly migraine days: 3.86 days
  decrease in mean monthly acute medication use days: 3.68 days
  proportion of participants who reported a migraine day: 10.8%
  LS mean change from baseline in mean headache days: −3.4
  LS mean reduction from baseline in mean cumulative headache hours: -23.6 h
  LS mean change from baseline in acute medication use days: −3.4
  LS mean change from baseline in moderate/severe headache days: −3.2
  Mean change from baseline in weekly migraine days: −0.94
  odds ratio vs placebo for reporting a migraine: 0.33
30 mg, weeks 1-4
  mean change from baseline in mean monthly migraine days: −3.4
30 mg, weeks 5-8
  mean change from baseline in mean monthly migraine days: −3.9
30 mg, weeks 9-12
  mean change from baseline in mean monthly migraine days: −4.3
60 mg QD
  100% reduction in 3-month average of monthly migraine days, responder n (%): 17 (7.7) %
  ≥25% reduction in 3-month average of monthly migraine days, responder n (%): 180 (81.1) %
  ≥75 reduction in 3-month average of monthly migraine days, responder n (%): 84 (37.8) %
  Change from baseline in mean monthly acute medication use days, LS mean change (SE): -3.85 days
  Change from baseline in mean monthly headache days, LS mean change (SE): -4.23 days
  Change from baseline in mean monthly migraine days, LS mean change (SE): -4.20 days
  Mean monthly acute medication use days, LSMD vs. placebo (95% CI): -1.50 days
  Mean monthly headache days, LSMD vs. placebo (95% CI): -1.71 days
  Mean monthly migraine days, LSMD vs. placebo (95% CI): -1.72 days
  ≥50% reduction in 3-month average of monthly migraine days, odds ratio vs. placebo (95% CI): 3.82
  ≥50% reduction in 3-month average of monthly migraine days, responder n (%): 60.8%
60 mg QD, listed as Atogepant
  ≥50% reduction in 3-month average of monthly migraine days, responder n (%): (60.8) %
60 mg
  decrease in mean monthly headache days: 4.23 days
  decrease in monthly migraine days: 4.20 days
  decrease in mean monthly acute medication use days: 3.85 days
  proportion of participants who reported a migraine day: 12.3%
  LS mean change from baseline in mean headache days: −3.8
  LS mean reduction from baseline in mean cumulative headache hours: -25.1 h
  LS mean change from baseline in acute medication use days: −3.7
  LS mean change from baseline in moderate/severe headache days: −3.8
  Mean change from baseline in weekly migraine days: −1.03
  odds ratio vs placebo for reporting a migraine: 0.39
60 mg, weeks 1-4
  mean change from baseline in mean monthly migraine days: −3.9
60 mg, weeks 5-8
  mean change from baseline in mean monthly migraine days: −4.2
60 mg, weeks 9-12
  mean change from baseline in mean monthly migraine days: −4.4
Atogepant treated participants (all doses)
  times more likely than placebo to achieve ≥50% reduction in the 12-week average of MMDs: ≥ 3 times
[1]
  participants with 100% reduction in MMDs across 12 weeks: 5%-8%
  participants with ≥25% reduction in MMDs across 12 weeks: 73%-81%
  participants with ≥50% reduction in mean MMDs across 12 weeks: 56%-61% and 56-61%
  participants with ≥75% reduction in MMDs across 12 weeks: 30%-38%
